Data reported in the OligoGym collection.
HELM strings list units from the 5' end as sugar, base in round brackets, then linkage (d deoxyribose, r ribose, m 2'-O-methyl, p phosphodiester). Strings are as the collection lists them; they lack the last nucleoside at the 3' end of the tested compound. [moe] = 2'-O-(2-methoxyethyl) (MOE); [sp] = phosphorothioate linkage; [m5C] = 5-methylcytosine

Biological target: GFAP
Assay: mouse, dose not given
Details: ASO

RNA1{[moe](G)[sp].[moe](T)p.[moe](G)p.[moe](T)p.[moe](A)[sp].d(T)[sp].d(T)[sp].d(A)[sp].d(G)[sp].d(G)[sp].d(A)[sp].d(T)[sp].d([m5C])[sp].d([m5C])[sp].d([m5C])[sp].[moe](A)p.[moe](T)p.[moe]([m5C])[sp].[moe](T)}$$$$ (last 3' nucleoside missing)
3 h FOB score: 4 score 0-7

RNA1{[moe](A)[sp].[moe](G)p.[moe](T)p.[moe]([m5C])p.[moe](A)p.d(G)[sp].d([m5C])[sp].d([m5C])[sp].d(T)[sp].d(G)[sp].d(G)[sp].d(T)[sp].d(T)[sp].d(A)[sp].d(G)[sp].[moe]([m5C])p.[moe]([m5C])p.[moe](T)[sp].[moe](T)}$$$$ (last 3' nucleoside missing)
3 h FOB score: 4 score 0-7

RNA1{[moe](G)[sp].[moe]([m5C])p.[moe](A)p.[moe](T)p.[moe](T)[sp].d(T)[sp].d(G)[sp].d(T)[sp].d([m5C])[sp].d(T)[sp].d(T)[sp].d(T)[sp].d(A)[sp].d(T)[sp].d(T)[sp].[moe](T)p.[moe](T)p.[moe](T)[sp].[moe]([m5C])}$$$$ (last 3' nucleoside missing)
3 h FOB score: 0 score 0-7

RNA1{[moe](T)[sp].[moe](G)p.[moe]([m5C])p.[moe]([m5C])p.[moe](A)p.d(T)[sp].d(T)[sp].d(T)[sp].d(A)[sp].d(T)[sp].d([m5C])[sp].d(T)[sp].d(G)[sp].d(T)[sp].d(G)[sp].[moe]([m5C])p.[moe](T)p.[moe](T)[sp].[moe](T)}$$$$ (last 3' nucleoside missing)
3 h FOB score: 1 score 0-7

RNA1{[moe](A)[sp].[moe](G)p.[moe]([m5C])p.[moe](A)p.[moe](T)[sp].d(A)[sp].d(G)[sp].d(G)[sp].d(G)[sp].d(A)[sp].d(T)[sp].d(A)[sp].d(T)[sp].d([m5C])[sp].d([m5C])[sp].[moe]([m5C])p.[moe](A)p.[moe]([m5C])[sp].[moe]([m5C])}$$$$ (last 3' nucleoside missing)
3 h FOB score: 2 score 0-7

RNA1{[moe](T)[sp].[moe](T)p.[moe](T)p.[moe](G)p.d(G)[sp].d([m5C])[sp].d(A)[sp].d(G)[sp].d(T)[sp].d(A)[sp].d(T)[sp].d(T)[sp].d(A)[sp].d([m5C])[sp].[moe]([m5C])p.[moe](T)p.[moe]([m5C])p.[moe](T)[sp].[moe](A)}$$$$ (last 3' nucleoside missing)
3 h FOB score: 1 score 0-7

RNA1{[moe](T)[sp].[moe](G)p.[moe](A)p.[moe]([m5C])p.[moe](T)p.d(A)[sp].d(T)[sp].d([m5C])[sp].d(T)[sp].d(A)[sp].d(G)[sp].d(G)[sp].d(A)[sp].d(T)[sp].d(T)[sp].[moe](T)p.[moe](G)p.[moe](G)[sp].[moe]([m5C])}$$$$ (last 3' nucleoside missing)
3 h FOB score: 3 score 0-7

RNA1{[moe](G)[sp].[moe]([m5C])p.[moe](A)p.[moe]([m5C])p.[moe](A)[sp].d(G)[sp].d(T)[sp].d(T)[sp].d([m5C])[sp].d([m5C])[sp].d([m5C])[sp].d(A)[sp].d(G)[sp].d(A)[sp].d(T)[sp].[moe](A)p.[moe]([m5C])p.[moe](T)[sp].[moe]([m5C])}$$$$ (last 3' nucleoside missing)
3 h FOB score: 0 score 0-7

RNA1{[moe]([m5C])[sp].[moe](T)p.[moe](T)p.[moe](T)p.[moe](A)[sp].d(T)[sp].d(T)[sp].d(T)[sp].d(T)[sp].d(T)[sp].d([m5C])[sp].d([m5C])[sp].d(T)[sp].d([m5C])[sp].d(A)[sp].[moe](G)p.[moe]([m5C])p.[moe](G)[sp].[moe](A)}$$$$ (last 3' nucleoside missing)
3 h FOB score: 0 score 0-7

RNA1{[moe](G)[sp].[moe](A)p.[moe](A)p.[moe](T)p.[moe]([m5C])[sp].d(A)[sp].d(T)[sp].d(T)[sp].d(T)[sp].d([m5C])[sp].d(A)[sp].d(G)[sp].d(G)[sp].d(G)[sp].d([m5C])[sp].[moe]([m5C])p.[moe](A)p.[moe](A)[sp].[moe](T)}$$$$ (last 3' nucleoside missing)
3 h FOB score: 6 score 0-7

RNA1{[moe]([m5C])[sp].[moe]([m5C])p.[moe](T)p.[moe](G)p.[moe](T)p.d(G)[sp].d(A)[sp].d([m5C])[sp].d(T)[sp].d(A)[sp].d(T)[sp].d([m5C])[sp].d(T)[sp].d(A)[sp].d(G)[sp].[moe](G)p.[moe](A)p.[moe](T)[sp].[moe](T)}$$$$ (last 3' nucleoside missing)
3 h FOB score: 2 score 0-7

RNA1{[moe](T)[sp].[moe](T)p.[moe](G)p.[moe](T)p.d(G)[sp].d(A)[sp].d(T)[sp].d(T)[sp].d(T)[sp].d(T)[sp].d([m5C])[sp].d([m5C])[sp].d([m5C])[sp].d([m5C])[sp].[moe](G)p.[moe](T)p.[moe]([m5C])p.[moe](T)[sp].[moe](T)}$$$$ (last 3' nucleoside missing)
3 h FOB score: 0 score 0-7

RNA1{[moe]([m5C])[sp].[moe](T)p.[moe](G)p.[moe]([m5C])p.[moe]([m5C])p.d(A)[sp].d(T)[sp].d(T)[sp].d(T)[sp].d(A)[sp].d(T)[sp].d([m5C])[sp].d(T)[sp].d(G)[sp].d(T)[sp].[moe](G)p.[moe]([m5C])p.[moe](T)[sp].[moe](T)}$$$$ (last 3' nucleoside missing)
3 h FOB score: 2 score 0-7

RNA1{[moe](G)[sp].[moe](T)p.[moe](G)p.[moe]([m5C])p.[moe](T)[sp].d(T)[sp].d(T)[sp].d(T)[sp].d([m5C])[sp].d(T)[sp].d(G)[sp].d([m5C])[sp].d([m5C])[sp].d(T)[sp].d([m5C])[sp].[moe]([m5C])p.[moe](A)p.[moe](G)[sp].[moe](G)}$$$$ (last 3' nucleoside missing)
3 h FOB score: 2 score 0-7

RNA1{[moe](G)[sp].[moe](T)p.[moe](G)p.[moe](T)p.[moe](A)p.[moe](T)p.d(T)[sp].d(A)[sp].d(G)[sp].d(G)[sp].d(A)[sp].d(T)[sp].d([m5C])[sp].d([m5C])[sp].d([m5C])[sp].d(A)[sp].[moe](T)p.[moe]([m5C])[sp].[moe](T)}$$$$ (last 3' nucleoside missing)
3 h FOB score: 4 score 0-7

RNA1{[moe](G)[sp].[moe](G)p.[moe](T)p.[moe](T)p.[moe](A)[sp].d(G)[sp].d([m5C])[sp].d([m5C])[sp].d(T)[sp].d(T)[sp].d(T)[sp].d([m5C])[sp].d(T)[sp].d(G)[sp].d(A)[sp].[moe](T)p.[moe](G)p.[moe]([m5C])[sp].[moe](T)}$$$$ (last 3' nucleoside missing)
3 h FOB score: 3 score 0-7

RNA1{[moe](G)[sp].[moe](T)p.[moe]([m5C])p.[moe](A)p.[moe](G)p.d([m5C])[sp].d([m5C])[sp].d(T)[sp].d(G)[sp].d(G)[sp].d(T)[sp].d(T)[sp].d(A)[sp].d(G)[sp].d([m5C])[sp].[moe]([m5C])p.[moe](T)p.[moe](T)[sp].[moe](T)}$$$$ (last 3' nucleoside missing)
3 h FOB score: 5 score 0-7

RNA1{[moe](A)[sp].[moe](A)p.[moe](T)p.[moe]([m5C])p.[moe](A)[sp].d(A)[sp].d(G)[sp].d([m5C])[sp].d(T)[sp].d([m5C])[sp].d([m5C])[sp].d([m5C])[sp].d(A)[sp].d([m5C])[sp].d([m5C])[sp].[moe](T)p.[moe](G)p.[moe]([m5C])[sp].[moe]([m5C])}$$$$ (last 3' nucleoside missing)
3 h FOB score: 0 score 0-7
